# From patent publication US20100075979A1, “PYRIDINYLPIPERAZIN DERIVATIVES USEFUL AS MODULATORS OF DOPAMINE D3 RECEPTORS” (priority 2008, published 2010)
# Biological target: T1, human D3 dopamine receptor (Homo sapiens, UniProt P35462)
# T1 construct: expressed in transfected cells; host or cells: HEK-293 EBNA cells (transient transfection; membrane preparation)
# Assay: Radioligand binding assay ([3H]-spiperone) on membranes of HEK-293 EBNA cells expressing human D3 receptor
# Conditions: [3H]-spiperone approx. 0.5 nM, 1 h at RT, cloned human D3 in HEK-293 EBNA membranes; Ki by Cheng-Prusoff
# Procedure: The ability of the compounds to bind to the D3 receptors was determined using radioligand binding to cloned receptors selectively expressed in HEK-293 EBNA cells.
# HEK-293 EBNA cells were transiently transfected with expression plasmids encoding for the human D3 dopamine receptor. The cells were harvested 48 h post-transfection, washed three times with cold PBS and stored at −80° C. prior to use. The pellet was suspended in cold 50 mM
# Tris-HCl buffer containing 10 mM EDTA (pH 7.4) and homogenized with a Polytron (Kinematica AG, Basel, Switzerland) for 20-30 sec at 12.000 rpm. After centrifugation at 48.000×g for 30 min at 4° C., the pellet was resuspended in cold 10 mM Tris-HCl buffer containing 0.1 mM EDTA (pH 7.4), homogenized, and centrifuged as above. This pellet was further resuspended in a smaller volume of ice cold 10 mM Tris-HCl buffer containing 0.1 mM EDTA (pH 7.4) and homogenized with a Polytron for 20-30 sec at 12.000 rpm. The protein content of this homogenate was determined with the Bio-Rad (Bradford) Protein Assay (Biorad Laboratories GmbH, München, Germany) according to the instructions of the manufacturer using gamma globulin as the standard.
# This homogenate was stored at −80° C. in aliquots and thawed immediately prior to use.
# Aliquots of membrane preparations were thawed at RT, resuspended in assay buffer (50 mM Tris-HCl, 120 mM NaCl, 5 mM MgCl2, 1 mM EDTA, 5 mM KCl, 1.5 mM CaCl2, pH=7.4), homogenized with a Polytron for 20-30 sec at 12.000 rpm and adjusted to a final concentration of approximately 7.5 μg protein/well.
# The binding affinity (Ki) of the compounds was determined using radioligand binding. Membranes were incubated in a total volume of 200 μl with a fixed concentration of radioligand (final concentration approximately 0.5 nM [^3H]-spiperone) and ten concentrations of test compound in ranging between 10 μM-0.1 nM for 1 h at RT. At the end of the incubation, the reaction mixtures were filtered on to unifilter 96-well white microplates with bonded GF/C filters (Packard BioScience, Zurich, Switzerland; preincubated for 1 h in 0.1% polyethylenimine (PEI) in assay buffer) with a Filtermate 196 harvester (Packard BioScience) and washed 3 times with cold assay buffer. The nonspecific binding was determined with equally composed reaction mixtures in the presence of 10 μM unlabelled spiperone. Per well 45 μl of Microscint 40 (Perkin Elmer, Schwerzenbach, Switzerland) was added, plates for sealed, shaken for 20 min and counted for 3 min on a Topcount Microplate Scintillation Counter (Canberra Packard SA, Zürich, Switzerland) with quenching correction.
# The CPM value for each duplicate of a concentration of competing compound was averaged (y1), then the % specific binding was calculated according to the equation (((y1−non-specific)/(total binding-non-specific))×100). Graphs were plotted with the % specific binding using XLfit, a curve fitting program that iteratively plots the data using Levenburg Marquardt algorithm. The single site competition analysis equation used was y=A+((B−A)/(1+((x/C)^D))), where y is the % specific binding, A is the minimum y, B is the maximum y, C is the IC50, x is the log10 of the concentration of the competing compound and D is the slope of the curve (the Hill Coefficient). From these curves the IC50 (inhibition concentration at which 50% specific binding of the radioligand was displaced) and Hill coefficient were determined. The affinity constant (Ki) was calculated using the Cheng-Prusoff equation Ki=(IC50/1+([L]/Kd), where [L] is the concentration of radioligand and Kd is the dissociation constant of the radioligand at the receptor as determined by the saturation isotherm.
# T1 sequence (P35462 whole entry): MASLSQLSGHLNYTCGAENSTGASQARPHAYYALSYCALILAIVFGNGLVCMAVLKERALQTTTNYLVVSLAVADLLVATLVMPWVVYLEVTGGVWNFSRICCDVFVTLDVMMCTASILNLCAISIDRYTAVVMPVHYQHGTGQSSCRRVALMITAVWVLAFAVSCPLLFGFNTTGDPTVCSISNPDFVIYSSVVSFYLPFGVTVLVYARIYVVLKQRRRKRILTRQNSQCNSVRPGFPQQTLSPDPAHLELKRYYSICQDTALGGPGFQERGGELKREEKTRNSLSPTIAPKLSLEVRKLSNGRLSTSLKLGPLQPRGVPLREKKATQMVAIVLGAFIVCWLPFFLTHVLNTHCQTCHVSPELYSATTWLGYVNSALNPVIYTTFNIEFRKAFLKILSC
row,SMILES,Ki
1,"CC(=O)N[C@H]1CC[C@H](CCN2CCN(c3ccc(C(F)(F)F)nc3)CC2)CC1 [Example 7, N-(trans-4-{2-[4-(6-Trifluoromethyl-pyridin-3-yl)-piperazin-1-yl]-ethyl}-cyclohexyl)-acetamide]",5.66 nM
2,"CC(=O)N[C@H]1CC[C@H](CCN2CCN(c3ncc(Cl)cc3Cl)CC2)CC1 [Example 6, N-(trans-4-{2-[4-(3,5-Dichloro-pyridin-2-yl)-piperazin-1-yl]-ethyl}-cyclohexyl)-acetamide]",9.64 nM
3,"O=C(CC1CC1)N[C@H]1CC[C@H](CCN2CCN(c3ncc(C(F)(F)F)cc3Cl)CC2)CC1 [Example 4, N-(trans-4-{2-[4-(3-Chloro-5-trifluoromethyl-pyridin-2-yl)-piperazin-1-yl]-ethyl}-cyclohexyl)-2-cyclopropyl-acetamide]",10.1 nM
4,"CCC(=O)N[C@H]1CC[C@H](CCN2CCN(c3ncc(C(F)(F)F)cc3Cl)CC2)CC1 [Example 3, N-(trans-4-{2-[4-(3-Chloro-5-trifluoromethyl-pyridin-2-yl)-piperazin-1-yl]-ethyl}-cyclohexyl)-propionamide]",16.8 nM
5,"CC(=O)N[C@H]1CC[C@H](CCN2CCN(c3ncc(C(F)(F)F)cc3Cl)CC2)CC1 [Example 1, N-(trans-4-{2-[4-(3-Chloro-5-trifluoromethyl-pyridin-2-yl)-piperazin-1-yl]-ethyl}-cyclohexyl)-acetamide]",9.64 nM
6,"CC(=O)N[C@H]1CC[C@H](CCN2CCN(c3ccnc(Cl)c3Cl)CC2)CC1 [Example 10, N-(trans-4-{2-[4-(2,3-Dichloro-pyridin-4-yl)-piperazin-1-yl]-ethyl}-cyclohexyl)-acetamide]",1.7 nM
7,"COCCC(=O)N[C@H]1CC[C@H](CCN2CCN(c3ncc(C(F)(F)F)cc3Cl)CC2)CC1 [Example 2, N-(trans-4-{2-[4-(3-Chloro-5-trifluoromethyl-pyridin-2-yl)-piperazin-1-yl]-ethyl}-cyclohexyl)-3-methoxy-propionamide]",5.66 nM
8,"COc1cccnc1N1CCN(CC[C@H]2CC[C@H](NC(C)=O)CC2)CC1 [Example 9, N-(trans-4-{2-[4-(3-Methoxy-pyridin-2-yl)-piperazin-1-yl]-ethyl}-cyclohexyl)-acetamide]",10.1 nM
9,"CC(=O)N[C@H]1CC[C@H](CCN2CCN(c3ncccc3Cl)CC2)CC1 [Example 5, N-(trans-4-{2-[4-(3-Chloro-pyridin-2-yl)-piperazin-1-yl]-ethyl}-cyclohexyl)-acetamide]",1.7 nM
10,"NC(=O)CC(=O)N[C@H]1CC[C@H](CCN2CCN(c3ncc(C(F)(F)F)cc3Cl)CC2)CC1 [Example 8, N-(trans-4-{2-[4-(3-Chloro-5-trifluoromethyl-pyridin-2-yl)-piperazin-1-yl]-ethyl}-cyclohexyl)-malonamide]",16.8 nM
